Tested on: post-surgical incisional (post-operative or POP) pain
Experiment: Post-operative (POP) pain porcine model, von Frey test
Type: in vivo
Conditions: Group 1: IV aprepitant 6 mg/kg once prior to surgery and daily for 5 days after surgery, no other medication; 4 pigs
Source text: Example 1 describes three studies conducted to evaluate the capacity to reduce post-surgical incisional (post-operative or POP) pain in a porcine model system. Using a post-operative (POP) pain porcine model system, where a 7 cm long skin and fascia incision was made in the left flank under general anesthesia to pigs, NK-1 receptor antagonist alone or in combination with pain medication (i.e., bupivacaine and meloxicam) were applied to the wound. The skin incision was then closed using sterile sutures. Various methods were evaluated for their capacity to reduce post-surgical incisional (post-operative or POP) pain in a porcine model system. […] All studies described below evaluated 4 pigs per group. Post-operative pain was assessed using the von Frey methodology. […] By alternating the filament thickness, the gram force required to achieve withdrawal reaction was determined and recorded. […] Several studies evaluated emulsion compositions containing aprepitant (diluted 1:7) with saline, administered by intravenous infusion dosed at 6 mg/kg as a slow bolus via an IV catheter in the ear. […] Analgesia was evaluated by response in the von Frey test, as described above. […] By following similar procedures described in Example 1, the analgesic effect of a lower dose of aprepitant (i.e., lower than 6.0 mg/kg) was evaluated. […]

C[C@@H](O[C@H]1OCCN(Cc2n[nH]c(=O)[nH]2)[C@H]1c1ccc(F)cc1)c1cc(C(F)(F)F)cc(C(F)(F)F)c1 [aprepitant]
analgesia, von Frey response (withdrawal force): little analgesic response
